Test results taken from US20240358731A1, “SUMO PATHWAY AS AN OXYGEN SENSOR RELEVANT TO THE PATHOPHYSIOLOGY OF PULMONARY ARTERY HYPERTENSION AND CARDIAC ARRHYTHMIA” (Northeastern University, priority 2023, published 2024).
Changes are numbered by the printed parent chain.

Experiments:
[1] = test system: SUMOylation; conditions: cited from earlier work
[2] = test system: E1 and E2; conditions: cited from earlier work
[3] = biological target: T1, Kir2.4 (Homo sapiens, UniProt Q9UNX9); assay: Whole-cell patch-clamp of Kir2.4 in HEK293 cells with SUMO1 or SENP1 in the recording pipette; type: cell-based; parameters: expressed in transfected cells; conditions: 1 nM in pipette; 140 mM bath K+; within one-minute of breakthrough
T1 sequence (Q9UNX9 1-436): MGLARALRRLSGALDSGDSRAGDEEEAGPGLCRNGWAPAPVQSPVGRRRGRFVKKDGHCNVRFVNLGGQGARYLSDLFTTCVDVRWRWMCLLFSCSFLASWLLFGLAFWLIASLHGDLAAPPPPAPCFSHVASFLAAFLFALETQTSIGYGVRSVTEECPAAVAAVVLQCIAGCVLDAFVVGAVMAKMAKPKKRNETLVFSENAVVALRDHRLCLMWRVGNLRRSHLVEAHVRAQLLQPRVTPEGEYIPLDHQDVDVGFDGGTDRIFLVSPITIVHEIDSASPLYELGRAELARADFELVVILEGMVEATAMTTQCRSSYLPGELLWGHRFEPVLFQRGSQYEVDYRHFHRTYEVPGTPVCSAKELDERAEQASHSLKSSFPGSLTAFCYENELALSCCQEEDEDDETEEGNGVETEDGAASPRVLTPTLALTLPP
Description: Currents were measured at −80 mV in 140 mM external K+.
Similarly, currents were no longer enhanced by SENP1.
SUMOylation regulates Kir2.4 channels in mammalian cells. Next, we tested if SUMO could regulate Kir2.4 channels in mammalian cells. Kir2.4 channels were transiently expressed in HEK293 cells and studied in whole-cell mode with 140 mM bath [K]^+, using a ramp protocol from −80 to +80 mV. Purified SUMO1 or SENP1 peptide were introduced via the recording pipette. At 1 nM, SUMO1, but not heat-denatured SUMO1, inhibited Kir2.4 currents by ˜40 and 60%, respectively, within one-minute of breakthrough. In contrast, 1 nM SENP1 increased the current by ˜50% (FIG. 7).
The PIP2-dependence of SUMO-regulation. Using the 5-ptaseOCRL system, we depleted PIP2 in HEK293 cells expressing Kir2.4 and studied currents with 1 nM SUMO1, or SENP1 in the recording pipette. When currents were recorded after 5-min activation of the optogenetic probe, 5-ptaseOCRL, the inhibitory effect of 1 nM SUMO1 on Kir2.4 was reduced from ˜40% to ˜7% (FIG. 9). Current augmentation observed with SENP1 in the pipette was reduced from […] to ˜6%. These preliminary data support the conclusion that SUMO-regulation of Kir2.4 channels is PIP2-dependent.

[4] = biological target: T2, SUMO activating enzyme (SAE) (Homo sapiens, UniProt Q9UBE0+Q9UBT2); conditions: cited from earlier work
T2 sequence (Q9UBE0 1-346): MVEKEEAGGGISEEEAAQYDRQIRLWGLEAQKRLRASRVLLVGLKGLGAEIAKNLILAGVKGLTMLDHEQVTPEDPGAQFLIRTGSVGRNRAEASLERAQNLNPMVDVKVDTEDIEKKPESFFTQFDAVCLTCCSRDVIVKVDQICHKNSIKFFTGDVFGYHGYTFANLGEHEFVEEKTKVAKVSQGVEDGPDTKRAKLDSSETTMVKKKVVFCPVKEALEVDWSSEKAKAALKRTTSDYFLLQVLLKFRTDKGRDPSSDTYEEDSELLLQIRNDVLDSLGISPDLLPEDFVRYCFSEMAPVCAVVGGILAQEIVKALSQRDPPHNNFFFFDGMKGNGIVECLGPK
T2 sequence (Q9UBT2 1-640): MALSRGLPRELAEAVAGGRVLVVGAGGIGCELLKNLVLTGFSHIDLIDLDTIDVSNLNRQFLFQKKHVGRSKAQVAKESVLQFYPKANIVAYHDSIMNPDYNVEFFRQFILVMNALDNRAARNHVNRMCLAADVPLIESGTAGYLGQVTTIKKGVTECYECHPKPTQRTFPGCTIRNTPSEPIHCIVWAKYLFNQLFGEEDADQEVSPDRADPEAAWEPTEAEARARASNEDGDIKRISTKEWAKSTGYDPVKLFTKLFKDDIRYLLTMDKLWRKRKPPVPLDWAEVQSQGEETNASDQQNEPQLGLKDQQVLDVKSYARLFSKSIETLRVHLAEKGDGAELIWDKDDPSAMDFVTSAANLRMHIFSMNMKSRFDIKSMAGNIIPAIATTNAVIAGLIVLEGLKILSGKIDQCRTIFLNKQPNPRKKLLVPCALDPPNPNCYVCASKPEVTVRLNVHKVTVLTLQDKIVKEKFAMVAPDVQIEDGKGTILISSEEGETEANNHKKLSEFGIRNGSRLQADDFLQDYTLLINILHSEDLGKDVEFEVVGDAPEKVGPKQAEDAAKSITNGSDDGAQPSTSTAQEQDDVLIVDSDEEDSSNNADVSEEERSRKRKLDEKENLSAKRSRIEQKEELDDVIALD

[5] = biological target: Ubc9 (Homo sapiens, UniProt P63279); conditions: cited from earlier work
[6] = biological target: T3, Kir2.1-mediated IK1 current (Rattus norvegicus, UniProt Q64273); assay: Whole-cell patch-clamp of IK1 in rat ventricular cardiomyocytes under acute hypoxia; type: cell-based
T3 construct: endogenous in cells; host or cells: rat ventricular cardiomyocytes (RVCMs)
T3 sequence (Q64273 1-427): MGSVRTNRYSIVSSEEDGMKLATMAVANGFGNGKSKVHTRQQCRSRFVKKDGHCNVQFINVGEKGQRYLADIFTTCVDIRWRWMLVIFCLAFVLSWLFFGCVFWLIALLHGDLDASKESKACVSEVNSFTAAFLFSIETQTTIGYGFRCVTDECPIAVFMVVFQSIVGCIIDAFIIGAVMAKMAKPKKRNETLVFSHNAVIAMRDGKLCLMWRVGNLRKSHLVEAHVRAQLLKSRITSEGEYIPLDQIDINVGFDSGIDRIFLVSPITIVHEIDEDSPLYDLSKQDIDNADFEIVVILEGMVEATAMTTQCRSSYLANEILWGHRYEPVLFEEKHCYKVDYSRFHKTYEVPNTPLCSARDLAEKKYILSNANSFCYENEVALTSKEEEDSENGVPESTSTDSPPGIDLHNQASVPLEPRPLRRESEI
Description: IK1 in rat ventricular cardiomyocytes studied by whole-cell patch-clamp. Hypoxia was a drop in O2 from ambient levels to 2%, measured at the cell. The time-course of hypoxic-inhibition was studied by recording the magnitude of IK1 every second. Cells were studied with the following pipette solutions: control, SUMO1 (1 μM) or SENP1 (2 μM). IK1 was blocked by the addition of 3 mM Ba^2+. […] Left, representative current sweeps; right, a representative time course showing the kinetics of hypoxic inhibition in cardiomyocytes studied with control pipette solution. The inhibition is precluded by including SENP1 (2 μM, magenta) in the recording pipette. The reverse ramp recording protocol is inset. […] SENP1 augments IK1 and protects the current from hypoxia. Data are from 8-10 RVCMs per group, **** P<0.0001, paired, two-tailed Student's […]. […] Representative data are shown with DAPI labeled nuclei and PLA interactions. Summary data are obtained from multiple experiments each with multiple fields of view containing 20-30 nuclei. The scale bar is 10 μm.
(§1) To knockdown Kir2.1 expression, RVCMs were transduced with lentiviral particles carrying cGFP and shRNA targeting KCNJ2-mRNA for the channel. Kir2.1 knockdown cells (Kir2.1kd-CMs) were identified by expression of cGFP. Cells were studied with control pipette solution, or with pipette solutions containing purified SUMO1 (1 μM) or SENP1 (2 μM). Where indicated, the control pipette solution contained diC8 PIP2. Paired patch-clamp data were analyzed by Students t-test; ***, P<0.01. […] Kir2.1kd-CMs are identified by expression of GFP (inset, scale bar=10 μm). […] The arrow indicates the change in current-magnitude between exposure to ambient O2 and 2% O2 in the same cell. Right, Concentration-response curve showing that including diC8-PIP2 in the pipette opposes hypoxic-inhibition of IK1 in control RVCMs and RVCMs expressing the scrambled shRNA. The hypoxic-response is diminished in Kir2.1kd-CMs. Data are mean±s.d. for 7-8 cells per condition. […] Current inhibition is diminished when SENP1 is included in the recording pipette and is not observed when SUMO-insensitive Kir2.1-K49Q channels are studied. Data are mean±s.d. for 6 cells per condition.
Hypoxic-inhibition of Kir2.1 in cardiomyocytes via SUMOylation. We studied the effects of acute hypoxia on IK1 in rat ventricular cardiomyocytes (RVCMs) by whole cell patch-clamp recording. […] Both the hypoxia-sensitive and insensitive components of the current were blocked by Ba^2+ (3 mM), consistent with the known role of Kir2 channels in mediating IK1 (FIG. 1a). To determine if SUMOylation mediates the hypoxic inhibition of IK1 we introduced purified SENP1 (2 μM) to the cytosol via the recording pipette. […] Both the SUMO1 and hypoxia-mediated inhibition of IK1 remained stable throughout the remainder of the experiment (up to 10 mins). […] Next, we visualized and quantified the interactions between native Kir2.1 and SUMO1 in RVCMs using the proximity-ligation association (PLA) assay with antibodies we validated in heterologous cells by Western blot. […] The validated Kir2 antibodies were paired with SUMO1 antibodies that we have tested and utilized before. Under control conditions, interactions were observed between Kir2.1 and SUMO1, but not between Kir2.2 or Kir2.3 and SUMO1. […] Although cardiomyocytes are typically cultured at 21% O2, the O2-level in the myocardium is estimated to be in the range of 5-10% O2, under physiological conditions.
Hypoxic-inhibition of IK1/Kir2.1 is reduced by diC8-PIP2 in a concentration-dependent manner. We have shown that adding the exogenous, soluble PIP2 analog diC8-PIP2 into the patch-pipette opposes hypoxic-inhibition of IK1 (FIG. 4). […] As before, the effects of hypoxia were ameliorated by SENP1 (2 μM) and were not observed in the SUMO and hypoxia insensitive Kir2.1-K49Q channels (FIG. 4D).

[7] = biological target: T4, Kir2.1 channels (Homo sapiens, UniProt P63252); assay: Whole-cell patch-clamp of heterologous Kir2.1 channels in HEK293T cells under hypoxia; type: cell-based; conditions: agent in recording pipette (SENP1 2 μM)
T4 construct: expressed in transfected cells; host or cells: HEK293T
T4 sequence (P63252 1-427): T3 sequence (Q64273 1-427) with S119G, C336Y, E388D, S402T, G405D
Description: as §1
Hypoxic-inhibition of IK1/Kir2.1 is reduced by diC8-PIP2 in a concentration-dependent manner. We have shown that adding the exogenous, soluble PIP2 analog diC8-PIP2 into the patch-pipette opposes hypoxic-inhibition of IK1 (FIG. 4). […]

Chain of Ubc9 (P63279 whole entry): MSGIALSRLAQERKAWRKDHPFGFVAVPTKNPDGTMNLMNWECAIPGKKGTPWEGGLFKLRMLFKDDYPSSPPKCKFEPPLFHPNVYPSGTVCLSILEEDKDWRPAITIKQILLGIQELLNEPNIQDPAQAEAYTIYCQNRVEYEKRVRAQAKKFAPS

For CSC1=C(N)C(=O)c2[nH]cc(CO)c2C1=N [macrophilone A], the SUMOylation inhibition [1] is given as “demonstrated SUMOylation inhibitory activity through formation of ROS” and the “ROS generation and E1/E2 crosslinking” value [2] is given as “generated ROS and subsequent E1 and E2 crosslinking”.
With “heat-denatured SUMO1: heat-denatured SUMO1 peptide, control” the “inhibition of Kir2.4 currents” value [3] was “not”.
For c1coc(-c2cc(CNc3ncnc4sc5cnccc5c34)no2)c1 [Compound 22], the “formation of the E1-SUMO complex” value [4] is listed as “unable to block formation of the E1-SUMO complex” and the “selectivity for the SUMOylation pathway” value [5] is listed as “modest selectivity for the SUMOylation pathway”.
In the case of viomellein, the “Ubc9 (SUMO-E2) inhibition” value [5] is listed as “inhibitors of SUMO-E2”.
In the case of CCCCCCCC(=O)OC[C@H](COP(=O)(O)O[C@@H]1[C@H](O)[C@H](O)[C@@H](OP(=O)(O)O)[C@H](OP(=O)(O)O)[C@H]1O)OC(=O)CCCCCCC [diC8-PIP2], the “hypoxic inhibition of IK1” value ([6]; 100 μM diC8-PIP2 in pipette, wild-type RVCMs, ~40% without) is reported as roughly 15%, the “effect on hypoxic inhibition of IK1” value ([6]; ambient O2 to 2% O2, agent in pipette (SENP1 2 μM, SUMO1 1 μM, diC8-PIP2) or pretreatment (TAK981)) is reported as “diminished the hypoxic-inhibition of IK1 in a concentration-dependent manner” and the “effect on hypoxic inhibition of Kir2.1 channels” value [7] is reported as “concentration-dependent reduction in hypoxic inhibition”.
For chaetochromin A, the “Ubc9 (SUMO-E2) inhibition” value [5] is given as “inhibitors of SUMO-E2”.
In the case of O=c1cc(-c2ccc(O)c(O)c2O)oc2ccccc12 [Compound 2-D08], the “Ubc9 (SUMO-E2) inhibition” value [5] is given as “inhibits Ubc9 by preventing the transfer of SUMO from Ubc9 to the substrate”.
In the case of COC1=C(N)C(=O)c2[nH]cc(CO)c2C1=N [Compound 61], the “ROS generation and E1/E2 crosslinking” value [2] is listed as “generated ROS and subsequent E1 and E2 crosslinking”.
For Cc1cc(NC(=O)c2ccc(S(=O)(=O)N3CCC(C)CC3)cc2)ccc1NC(=O)Cn1cccn1 [Compound 26], the “formation of the SUMO-E2 complex” value [5] is given as “inhibited formation of the SUMO-E2 complex”.
In the case of C[C@@H](C(=O)Nc1ccc(NC(=O)c2ccc(C(=O)c3ccccc3)cc2)cc1)n1cccn1 [Compound 27], the “formation of the SUMO-E2 complex” value [5] is listed as “inhibited formation of the SUMO-E2 complex”.
With [Ba+2] [Ba^2+] the “block of IK1 (hypoxia-sensitive and insensitive components)” value ([6]; 3 mM) was “blocked”.
For CO/C(=C/C(=O)O)[C@H]1c2cc3ccc(-c4ccc5cc6c(c(O)c5c4O)C(=O)C[C@@](C)(O)[C@H]6/C(=C\C(=O)O)OC)c(O)c3c(O)c2C(=O)C[C@@]1(C)O [spectomycin B1], the “Ubc9 (SUMO-E2) inhibition” value [5] is given as “inhibitors of SUMO-E2”.
